This passage reports Kd results from patent US7459434B2, “Peptide interacting with anti-apoptotic proteins of the Bcl-2 family” (Les Laboratories Servier, priority 2003, dated 2008).

No end group written: not given here.

The target in assay [1] is Bcl-XL (Homo sapiens, UniProt Q07817). The experiment in a line: Fluorescence polarisation, Kd of peptide with GST-Bcl-XL. As to conditions: 15 nM peptide labelled with fluorescein at the N-terminal end; GST-Bcl-XL 1 nM to 5 μM; pH 7.4; FIG. 2; read-out: Kd obtained with Bcl-XL. The class given is binding. As to the method: (§1) 2) Fluorescence Polarisation: Determination of the Kd of the Interaction Between the Peptide Obtained in Example 1 and the Anti-Apoptotic Protein
(§2) A 15 nM solution of the peptide obtained in Example 1 labelled with fluorescein at the N-terminal end is mixed with a solution containing the fusion protein GST-Bcl-XL or GST-Bcl-W at a concentration varying from 1 nM to 5 μM in a buffer containing Na2HPO4 20 mM pH 7.4, EDTA 1 mM, NaCl 50 mM, pluronic acid F-68 0.05%. The fluorescence polarisation is then measured by the En Vision apparatus (Packard Perkin-Elmer).
Background: Polarisation of emitted light reports the rotation of a fluorescent probe.

The target in assay [2] is T1, Bcl-W (Homo sapiens, UniProt Q92843).
T1 sequence (Q92843 1-193): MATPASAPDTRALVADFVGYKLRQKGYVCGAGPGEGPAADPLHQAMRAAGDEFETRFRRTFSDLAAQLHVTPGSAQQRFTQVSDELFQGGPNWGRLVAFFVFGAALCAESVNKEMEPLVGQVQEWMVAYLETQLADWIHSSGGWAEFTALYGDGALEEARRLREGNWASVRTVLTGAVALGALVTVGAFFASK
The experiment in a line: Fluorescence polarisation, Kd of peptide with GST-Bcl-W. The settings on record: 15 nM peptide labelled with fluorescein at the N-terminal end; GST-Bcl-W 1 nM to 5 μM; pH 7.4; FIG. 3; read-out: Kd obtained with Bcl-W. The class given is binding. As to the method:
as §1, §2

Bcl-XL, sequence (Q07817 whole entry, species assumed, the tested form may be a part): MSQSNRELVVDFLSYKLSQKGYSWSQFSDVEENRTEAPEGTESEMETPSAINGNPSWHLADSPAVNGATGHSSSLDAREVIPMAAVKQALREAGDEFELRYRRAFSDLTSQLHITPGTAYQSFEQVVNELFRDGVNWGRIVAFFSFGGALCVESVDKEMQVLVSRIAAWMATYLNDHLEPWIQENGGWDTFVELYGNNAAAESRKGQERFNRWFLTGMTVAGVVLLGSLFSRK

With “DTRRSMVFARHLREVGDEFRSR [peptide obtained in Example 1]”, the figures for the dissociation constant Kd in assay [1] and in assay [2] were 215 nM and 411 nM, respectively.
